The values that follow come from the supplement of paper PMC10307832.

What all share (assay): relative viability (nuclei count vs DMSO), 5 days (fraction); higher = more cells survive
Compound in the assay “Pazopanib + Luminespib”: Cc1ccc(Nc2nccc(N(C)c3ccc4c(C)n(C)nc4c3)n2)cc1S(N)(=O)=O [Pazopanib] + CCNC(=O)c1noc(-c2cc(C(C)C)c(O)cc2O)c1-c1ccc(CN2CCOCC2)cc1 [Luminespib] (partner 0.01 µM)
Put shortly:
(§1)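 Nuclei were stained with Hoechst during a one-step fixation (final 0.05% Triton X-100, 1% formaldehyde, 1 ug/ml Hoechst) carried out 5 days after dosing, then counted on 4× images. The cells, lung cancer lines in 1536-well plates, had been dosed by pin tool the day after seeding with one drug alone or a fixed anchor-drug dose plus five library-drug doses (not always all listed) in √10 steps. Relative viability is the nuclei count in treated wells divided by that in vehicle wells, and each value is the median of duplicate plates.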

Compound in the assay “Pazopanib + Bortezomib”: Cc1ccc(Nc2nccc(N(C)c3ccc4c(C)n(C)nc4c3)n2)cc1S(N)(=O)=O [Pazopanib] + CC(C)C[C@H](NC(=O)[C@H](Cc1ccccc1)NC(=O)c1cnccn1)B(O)O [Bortezomib] (partner 0.002 µM)
An outline of the steps: as §1

Compound in the assay “Pazopanib + Pemetrexed”: Cc1ccc(Nc2nccc(N(C)c3ccc4c(C)n(C)nc4c3)n2)cc1S(N)(=O)=O [Pazopanib] + Nc1nc2[nH]cc(CCc3ccc(C(=O)N[C@@H](CCC(=O)O)C(=O)O)cc3)c2c(=O)[nH]1 [Pemetrexed] (partner 0.2 µM)
Put shortly:
as §1

Compound in the assay “Ponatinib + Trametinib”: Cc1ccc(C(=O)Nc2ccc(CN3CCN(C)CC3)c(C(F)(F)F)c2)cc1C#Cc1cnc2cccnn12 [Ponatinib] + CC(=O)Nc1cccc(-n2c(=O)n(C3CC3)c(=O)c3c(Nc4ccc(I)cc4F)n(C)c(=O)c(C)c32)c1 [Trametinib] (partner 0.02 µM)
Put shortly: as §1

As for UMC-11, the relative viability came to 1.08 in the assay with Pazopanib + Luminespib (first compound 0.01 µM); 0.994 in the assay with Pazopanib + Luminespib (first compound 0.03162 µM); 1.06 with Pazopanib + Luminespib (first compound 0.1 µM); 0.98 in the assay with Pazopanib + Luminespib (first compound 0.3162 µM); 1.09 with Pazopanib + Luminespib (first compound 1 µM); 0.668 with Pazopanib + Bortezomib (first compound 0.01 µM). Also, the relative viability in the assay with Pazopanib + Bortezomib (first compound 0.03162 µM) turned out to be 0.988; with Pazopanib + Bortezomib (first compound 0.1 µM) it was 0.781; with Pazopanib + Bortezomib (first compound 0.3162 µM), 0.662; with Pazopanib + Bortezomib (first compound 1 µM), 0.976; with Pazopanib + Pemetrexed (first compound 0.01 µM) it was 0.743; with Pazopanib + Pemetrexed (first compound 0.03162 µM) it was 0.908. The relative viability came to 0.871 with Pazopanib + Pemetrexed (first compound 0.1 µM); 0.701 with Pazopanib + Pemetrexed (first compound 0.3162 µM); 0.844 with Pazopanib + Pemetrexed (first compound 1 µM); 0.648 with Ponatinib + Trametinib (first compound 0.002 µM); 0.638 with Ponatinib + Trametinib (first compound 0.006325 µM); 0.822 with Ponatinib + Trametinib (first compound 0.06325 µM). Besides, in the assay with Ponatinib + Trametinib (first compound 0.2 µM), the relative viability amounted to 0.709.
